Assay results from patent US20250332249A1, “CYTOM[…] CELL EPITOPES AND USES THEREOF” (LA JOLLA INSTITUTE FOR IMMUNOLOGY, priority 2021, published 2025).
Where no end group is shown, it is not given here.

System: PBMCs from HCMV seropositive subjects
Experiment: ex vivo IFN-γ Fluorospot assay
Assay type: cell-based, human
Settings: 19 HCMV seropositive subjects, individual peptide 10 ug/ml, 20 hr; for No. of subjects responding: IFN-γ; for Magnitude of response: IFN-γ spots (FIG. 1: SFC/10^6 PBMC; no unit in table)
Method: To define the targets of HCMV-specific T cell epitopes recognized in healthy adults, the inventors screened PBMCs of 19 subjects, 10 males and 9 females, recruited from San Diego blood bank (SDBB). The HCMV seropositivity of all the subjects was confirmed by IgG ELISA (FIG. 6A). A total of 2593 HCMV peptides covering a total of 563 ORFs (1) were tested. However, as many of these predicted ORFs overlapped 100% with others, as they were internal to longer ORFs, these 563 contained 359 completely unique ORFs composed of ˜150“canonical” ORFs, and an additional ˜200 identified by ribosomal RNA profiling (1). These peptides corresponded to predicted dominant epitopes, based on a bioinformatic method that predicts promiscuous binding to HLA class II molecules (40). Each of the ORFs above was covered by multiple predicted epitopes (with a minimum of at least 2), with the exception of very small ORFs (less than 15-20 amino acid residues), in which case at least one peptide was synthetized. The 2593 peptides were arranged in 89 pools of 28-30 15-mer peptides. PBMC reactivity of each of the 89 pools was assayed directly ex vivo using an IFN-γ Fluorospot assay.
For the initial CMV ORF screen, the responses of 19 CMV-seropositive subjects were evaluated. PBMCs were stimulated with 89 pools covering 563 ORFs of HCMV. Each pool comprised of 28-30 15-mer peptides overlapping by 10 residues. PBMCs that were found reactive to a pool were further tested against individual peptides contained in the pool using IFN-γ Fluorospot assay.
PBMC were thawed, washed and counted for viability using the trypan blue exclusion method. 200,000 cells were plated in triplicates and stimulated with pools (2 ug/ml) or peptides (10 ug/ml), PHA (10 ug/ml) or medium containing equivalent amount of DMSO in 96-well plates (Immubilion-P, Millipore) previously coated with anti IFN-γ antibody (1-DIK, Mabtech, Stockholm, Sweden). After 20 hr incubation at 37° C., cells were discarded and wells were washed six times with PBS/0.05% Tween 20 using an automated plate washer and further incubated with IFN-γ antibody (7-B6-1-FS-BAM) for 2 hrs at room temperature. After incubation, wells were washed and incubated with fluorophore conjugated anti-BAM-490 antibody for 1 hr at room temperature. Finally, the plates were washed and incubated with fluorescence enhancer for 15 min, blotted dry and fluorescent spots were counted by computer assisted image analysis (IRIS Fluorospot reader, Mabtech, Sweden).
Each pool or peptide was considered positive compared to the background that had equivalent amount of DMSO based on the following criteria: (i) 20 or more spot forming cells (SFC) per 10^6 PBMC after background subtraction, (ii) the stimulation index greater than 2, and (iii) p<0.05 by student's t test or Poisson distribution test

Substance	No. of subjects responding	Magnitude of response
1 (NGIRWQYQELQYLVE) [compound 1]	2	222
2 (RYNALTVRSRDSLLL) [compound 2]	2	204
3 (RVRTWFVQRTTLWRR) [compound 3]	1	60
4 (GLWVSSYLVRRPMTI; ends and bridges not checked) [compound 4]	2	890
5 (QGATYQLSIVRQAMQ; ends and bridges not checked) [compound 5]	1	650
6 (GAGLRQLRQQLTVRW) [compound 6]	1	20
7 (MRTVPVTKLYTSRMV) [compound 7]	1	5677
8 (AITLFFFLLALRIPQ) [compound 8]	1	207
9 (ALFTHFVGRPRHCRL) [compound 9]	1	57
10 (MLGIRAMLVMLDYYW) [compound 10]	1	350
11 (PSVRMDFRARRPLRR) [compound 11]	3	1740
12 (ARRLWILSLLAVTLT; ends and bridges not checked) [compound 12]	1	100
13 (LLAVTLTVALAAPSQ; ends and bridges not checked) [compound 13]	2	6420
14 (KDRCLVIRRRWRLVR) [compound 14]	1	60
15 (FVAESITEFLNIGLR) [compound 15]	1	530
16 (HENGIYYGTRSMRKL) [compound 16]	1	827
17 (FCRRFFFPDRPDFFL) [compound 17]	1	107
18 (AEDSVFTSTRARSAT) [compound 18]	1	490
19 (KFVLQDFDVQHLRRL) [compound 19]	1	40
20 (IINYYYVAQKKARHM) [compound 20]	1	163
21 (ALALHFLTSRKGVTD) [compound 21]	1	40
23 (DFLRVVRQQDAFICT) [compound 23]	2	174
24 (ICVARLQAQPSSRHI) [compound 24]	1	37
25 (GVSSVTLLKIFSQVP) [compound 25]	2	220
26 (VLATLAAVRTRRRSV) [compound 26]	2	340
27 (EAYVRINAGQVLPVV) [compound 27]	1	1853
28 (LHCMRYLTSSLVKRY) [compound 28]	1	150

Substance	No. of subjects responding	Magnitude of response
29 (KRYFRPLLRAWSLGL) [compound 29]	4	1388
30 (HLLRNIKTAFGMRVL) [compound 30]	2	1093
31 (ARNLMEFARVGLRAV) [compound 31]	1	1450
32 (TGLVLLLLLLVVRLL) [compound 32]	1	1440
33 (MLFRPTISNSIPRCR) [compound 33]	1	47
34 (LRIIRLLRASIRHEY; ends and bridges not checked) [compound 34]	1	810
35 (RAHIQKFERLHVRRF; ends and bridges not checked) [compound 35]	1	2523
36 (SLQFIGLQRRDVVAL; ends and bridges not checked) [compound 36]	1	83
37 (RDVVALVNFLRHLTQ; ends and bridges not checked) [compound 37]	1	1710
38 (RRTVLFNELMLWLGY; ends and bridges not checked) [compound 38]	1	180
39 (VNAVNKLVYTGRLIM; ends and bridges not checked) [compound 39]	1	340
40 (KELRMCLSFDSNYCR; ends and bridges not checked; cysteine pairing not given here) [compound 40]	1	127
41 (GMKTVAFDLSSPQKS; ends and bridges not checked) [compound 41]	1	193
46 (SYRSTYIILLLTWFA; ends and bridges not checked) [compound 46]	3	3990
47 (LTLRRTIGTLSRLVP; ends and bridges not checked) [compound 47]	1	163
48 (RRRMVSVTLFSPYSV; ends and bridges not checked) [compound 48]	1	53
49 (GRLMEVRQRNGRLRR; ends and bridges not checked) [compound 49]	1	30
50 (WPERCFIQLRSRSAL; ends and bridges not checked) [compound 50]	3	313
51 (GPGFMRYQLIVLIGQ; ends and bridges not checked) [compound 51]	1	3167
52 (IQTMELMIRTVPRIT) [compound 52]	2	384
53 (EFLVRQYVLVDTFGV) [compound 53]	2	104
54 (RREAIVRLEKTPTCQ) [compound 54]	2	407
55 (RRRFKVCDVGRRHII) [compound 55]	1	63
56 (RHRFLWQRRRRARLL) [compound 56]	1	1000
58 (FLKKMLLCALKGRAS) [compound 58]	1	930
59 (MPVQRLTVNVARCVF) [compound 59]	1	20
60 (KFIFELYRLPRLSIA) [compound 60]	1	173
